{"source": "patent US9844530B1", "about": "“Ophthalmic solutions for glaucoma and conjunctivitis treatment” (Axim Biotechnologies, Inc., priority 2014, dated 2017)", "origin": "cited, not measured here", "tested_on": "various Staphylococcus aureus strains", "conditions": "background statement"}
{"molecule": "C=C(C)[C@@H]1CCC(C)=C[C@H]1c1c(O)cc(CCCCC)cc1O", "note": "[Cannabidiol]", "values": [{"measurement": "minimum inhibitory concentration", "value": "0.5 to 1", "unit": "µg/mL"}]}
